Like-named read-outs stand apart in the source and are kept apart here.
Columns and labels:
Type in all cases: in vivo
[1] = system: sodium urate induced synovitis model in Beagle dogs; assay: Pain questionnaire assessment (cumulative pain score), sodium urate induced synovitis model
Procedure: Study Design: The study was a randomized, blinded, preclinical study using a controlled, parallel, matched-group design. Thirty-two subjects meeting the inclusion criteria were enrolled in the trial and allocated to 4 balanced groups; therefore one group received 2 treatments separated by a minimum of 14 days. Following induction of synovitis by sodium urate injections, effectiveness of transdermal formulations were evaluated using a pain questionnaire assessment and joint measurements at various time points. [table] On days 0, 2, 7 and 22, subjects who were schedules for synovitis induction were treated according to their assigned treatment condition. Test article administration occurred 30 minutes following synovitis induction, i.e. sodium urate injection. Transdermal treatment doses were measured in milligrams using an analytical scale and were then applied directly to the induce stifle. […] If IV administration of the propofol was not possible due to inaccessibility of the vein, the subjects were masked down using the isoflurane-oxygen mixture and the event was recorded on the anesthesia record. […] Specifically, the ability for each dog to walk, trot, gallop, rear, jump over a low obstacle, climb and descend stairs, jump down from a perch and general activity is evaluated in parallel to subjective evaluation of pain observed during each behavior. […]

[2] = system: sodium urate induced synovitis model in Beagle dogs; assay: Caliper measurement of patella/patellar tendon (knee cap) width, percent baseline measure of inflammation, sodium urate induced synovitis model
Procedure: Study Design: The study was a randomized, blinded, preclinical study using a controlled, parallel, matched-group design. Thirty-two subjects meeting the inclusion criteria were enrolled in the trial and allocated to 4 balanced groups; therefore one group received 2 treatments separated by a minimum of 14 days. Following induction of synovitis by sodium urate injections, effectiveness of transdermal formulations were evaluated using a pain questionnaire assessment and joint measurements at various time points. [table] On days 0, 2, 7 and 22, subjects who were schedules for synovitis induction were treated according to their assigned treatment condition. Test article administration occurred 30 minutes following synovitis induction, i.e. sodium urate injection. Transdermal treatment doses were measured in milligrams using an analytical scale and were then applied directly to the induce stifle. Transdermal treatments were rubbed into the dog's skin for a minimum of 1 minute. […] If IV administration of the propofol was not possible due to inaccessibility of the vein, the subjects were masked down using the isoflurane-oxygen mixture and the event was recorded on the anesthesia record. […] Each treatment group had the same number of dogs induced in the left […]) Caliper measurements: Within thirty minutes of synovitis induction and 4.5, 8.5, 24.5 and 30.5 hours following induction (±15 minutes), the width of the patella and the patellar tendon were measured in millimeters using […] 150 mm plastic gauge calipers which measured in increments of 1 mm. […] The cumulative pain scored and stifle measurements were analyzed using a repeated-measures analysis of variance (ANOVA) with the treatment group (7 factors( ) as between-subject measure and time-point (5 factors for pain and 4 factors for the inflammation measure) as a within-subject measure. Post-hoc Fisher's test was used to examine differences as appropriate. The Statistica 11 (Statsoft, Tulsa, Okla.) statistical software package was used with significance set to […].

[3] = Oral and transdermal celecoxib concentrations in canine sera and synovial fluid; conditions: dogs; for concentration at 7 days / concentration at 60 min: dog
Source text: A Latin Square design was used employing six aged dogs with radiographic evidence of bilateral shoulder osteoarthritis. The treatment cycle consisted of six days twice daily followed by a period of seven days devoid of treatment. Blood and synovial fluid samples (from both stifles and shoulders) were collected on the last (sixth) day of drug application and on the last (seventh) day of the washout period.
Test article: 3% celecoxib in exemplary transdermal base formulation 4; ˜0.5 g gel per shoulder (2) and stifle joint (2) twice daily (i.e. 60 mg celecoxib total twice daily).
Control article: Exemplary transdermal base formulation 5; ˜1 g gel per shoulder joint twice daily.
Positive control: 30 mg celecoxib in capsule PO twice daily.
Serum and Synovial Fluid Collection:
Whole blood and synovial fluid samples were collected from the dogs 60 mins post treatment on the […], and additional samples were collected after a 7 day washout. Baseline synovial fluid was collected from untreated canine subjects. Synovial fluid was collected under sedation (medetomidine, 0.01 mg/kg) and butorphenol (0.1 mg/kg, IV). The fluid was collected by arthrocentesis into the joint following surgical preparation of the area. Synovial fluid was collected from the stifle or shoulder joints.
Analytical Method Development and Quantification:
The method for quantification of celecoxib in serum, plasma and synovial fluid was completed by the National Research Council of Canada (NRC). The results were categorized and summarized for average and deviations for each treatment group and time period.
The objective of this study was to determine if the transdermal formulations of the application were capable of delivering celecoxib either into the systemic circulation and joint synovial fluid and compare transdermal versus oral routes of administration. A canine model was used over two time periods. The first time period consisting of a twice daily drug administration regimen for six days to assess concentrations predictive of chronic use. The second time period followed immediately after, wherein all animals were withdrawn of drug administration and tested after seven days to determine if celecoxib was completely metabolized.

[4] = Oral, 30 mg capsule PO twice daily (60 mg/day), Chronic administration (6 days)
[5] = Transdermal (formulation 4), Washout (7 days)
[6] = Transdermal, 3% celecoxib in formulation 4, 120 mg/day, Chronic administration (6 days)

concentration at 7 days ([3]; serum, 30 mg, Oral, Washout (7 days), read-out: Serum drug concentration of celecoxib): 0 ng/mL
concentration at 7 days ([3]; serum, topical, 60 mg, Transdermal (formulation 4), Washout (7 days), read-out: Serum drug concentration of celecoxib): 4 ng/mL
concentration at 60 min ([3]; serum, topical, 60 mg, Transdermal, 3% celecoxib in formulation 4, 120 mg/day, Chronic administration (6 days), read-out: Serum drug concentration of celecoxib): 221 ng/mL
concentration at 60 min ([3]; serum, Oral, 30 mg capsule PO twice daily (60 mg/day), Chronic administration (6 days), read-out: Serum drug concentration of celecoxib): 312 ng/mL
concentration at 7 days ([3]; synovial fluid, 30 mg, Oral, Washout (7 days), read-out: Synovial fluid drug concentration of celecoxib): 1 ng/mL
concentration at 7 days ([3]; synovial fluid, topical, 60 mg, Transdermal (formulation 4), Washout (7 days), read-out: Synovial fluid drug concentration of celecoxib): 17 ng/mL
concentration at 60 min ([3]; synovial fluid, topical, 60 mg, Transdermal, 3% celecoxib in formulation 4, 120 mg/day, Chronic administration (6 days), read-out: Synovial fluid drug concentration of celecoxib): 203 ng/mL
concentration at 60 min ([3]; synovial fluid, Oral, 30 mg capsule PO twice daily (60 mg/day), Chronic administration (6 days), read-out: Synovial fluid drug concentration of celecoxib): 76 ng/mL
Serum drug concentration of celecoxib [3, 4]: 312 (±214) ng/mL
Synovial fluid drug concentration of celecoxib [3, 4]: 76 (±57) ng/mL
Synovial fluid drug concentration of celecoxib ([3]; Oral, Washout (7 days)): 1 (±1) ng/mL
Serum drug concentration of celecoxib [3, 5]: 4 (±6) ng/mL
Synovial fluid drug concentration of celecoxib [3, 5]: 17 (±35) ng/mL
Serum drug concentration of celecoxib [3, 6]: 221 (±227) ng/mL
Synovial fluid drug concentration of celecoxib [3, 6]: 203 (±165) ng/mL
amount of drug the transdermal route requires to achieve the same circulating concentration as oral ([3]; chronic treatment, transdermal versus oral): twofold
reduction of circulating drug concentrations by one week washout ([3]; serum, oral or transdermal): > 95%
reduction of drug concentration by one week washout ([3]; synovial fluid, oral or transdermal): > 90%
Structure (SMILES): Cc1ccc(-c2cc(C(F)(F)F)nn2-c2ccc(S(N)(=O)=O)cc2)cc1 [celecoxib]
cumulative pain score in comparison to no treatment ([1]; 4 hours after treatment): significantly reduced
cumulative pain score in comparison to no treatment ([1]; 8 hours after treatment): significantly reduced
inflammation compared to Voltaren ([2]; 8 hours): significantly reduced inflammation
percent baseline measure of inflammation (knee cap measurement) in comparison to no treatment ([2]; 24 hours): significantly reduced
effects on inflammation compared to negative control ([2]; summary statement, no time point stated): no effects

Reference: US20190142738A1, “TRANSDERMAL FORMULATIONS FOR DELIVERY OF CELECOXIB AND ITS USE IN THE TREATMENT OF CELECOXIB-RESPONSIVE DISEASES AND CONDITIONS” (DELIVRA INC., priority 2016, published 2019)
